Consider 31 compounds from the supplement of paper PMC11616607.

Molecules are shown by their SMILES.

One test concerns OVCAR5. In words: drug sensitivity score (DSS) from 5-point dose-response viability curve (DSS (area-under-curve based score)); higher = more sensitive (stronger growth inhibition or killing); extreme values may be limits of the assay. The following applies: exposure time: 72 h; concentration range: 5 concentrations over 10,000-fold range. In short, it runs like this: (§1)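 Drug sensitivity scores were calculated in Breeze software for each cell line and drug pair; higher scores indicate more sensitivity. A score of zero indicates no response. The underlying assay used 384-well plates: drugs were placed by an Echo 550 acoustic dispenser at five concentrations spanning a 10,000-fold range, 1,500 ovarian cancer or normal ovarian cells were added per well, and cells were kept 3 days at 37°C, 5% CO2. Viability was then measured with CellTiter-Glo luminescence on a PHERAstar FS.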
As to `O=C(O)c1ccc2c(c1)nc(Nc1cccc(Cl)c1)c1ccncc12` [Silmitasertib], the drug sensitivity score was found to be 5.3.
The same measure, in the same setting: then `CCOc1ccccc1-n1c(C(C)N2CCN(C(=O)COc3ccc(Cl)cc3)CC2)nc2ccccc2c1=O` (stereo unspecified) [Erastin], with 0.9.
On the same count and under the same terms, then `CCNCCS(=O)(=O)NC[C@@]1(c2ccccc2)SC(NC(=O)C(C)(C)C)=NN1C(=O)C(C)(C)C` [Litronesib], with 19.
The same measure, in the same setting: the same measure for `CNC(=O)c1cccc(-c2ccc3c(N4CCOC[C@@H]4C)nc(N4CCOC[C@@H]4C)nc3n2)c1` [Vistusertib]: 13.3; for `CC(C)(C)c1cc(NC(=O)Nc2ccc(-c3cn4c(n3)sc3cc(OCCN5CCOCC5)ccc34)cc2)no1` [Quizartinib]: 0.8; for `N[C@@H]1CCCN(c2c(/C=C3\SC(=O)NC3=O)cccc2-c2ccccc2)C1` [AZD1208]: 1.4.
Regarding `CCc1c2c(nc3ccc(O)cc13)-c1cc3c(c(=O)n1C2)COC(=O)[C@]3(O)CC` [SN-38], the drug sensitivity score worked out at 24.
The same measure, in the same setting: the same measure for `Cn1cc(-c2ccc(F)c(C(F)(F)F)c2)nc1C1CCN(c2ncnc3[nH]ncc23)CC1`: 0.
Same read-out and setting: then `C=CC(=O)Nc1cc(Nc2nccc(-c3cn(C)c4ccccc34)n2)c(OC)cc1N(C)CCN(C)C` [Osimertinib], with 5.3.
On the same count and under the same terms, then `COC(=O)c1ccc2c(c1)[nH]c1ncnc(NCCCN3CCCCC3)c12` [UM729], with 1.
Take `Cc1nc(NC(=O)N2CCC[C@H]2C(N)=O)sc1-c1ccnc(C(C)(C)C(F)(F)F)c1` [Alpelisib]: the drug sensitivity score was 4.2.
On the same count and under the same terms, the same measure for `C[C@H]1CNCCCN1S(=O)(=O)c1cccc2cncc(F)c12` [Ripasudil]: 0; for `CC(C)(C)C[C@@H]1N[C@@H](C(=O)N[C@H]2CC[C@H](O)CC2)[C@H](c2cccc(Cl)c2F)[C@]12C(=O)Nc1cc(Cl)ccc12`: 0.4.
For the compound `CON(C)C(=O)N1N=C(c2cc(F)ccc2F)S[C@@]1(CCCN)c1ccccc1` [Filanesib], the drug sensitivity score was 17.6.
The same measure, in the same setting: the same measure for `CN(C)CC#Cc1ccc(OCCCc2sc(N3CCc4cccc(C(=O)Nc5nc6ccccc6s5)c4C3)nc2C(=O)O)c(F)c1`: 4.1; for `COc1cc(N2CCC(N3CCN(C)CC3)CC2)ccc1Nc1ncnc(Nc2ccccc2S(=O)(=O)C(C)C)n1` [ASP3026]: 8.2; for `CNC(=O)c1ccccc1Nc1cc(Nc2ccc(N3CCOCC3)cc2OC)ncc1C(F)(F)F` [VS-4718]: 8.
In turn, `CC(=O)c1c(C)c2cnc(Nc3ccc(N4CCNCC4)cn3)nc2n(C2CCCC2)c1=O` [Palbociclib] returned a drug sensitivity score of 3.6.
Same read-out and setting: then `CS(=O)(=O)N1CCN(Cc2cc3nc(-c4cccc5[nH]ncc45)nc(N4CCOCC4)c3s2)CC1` [Pictilisib], with 12.1; and `CCS(=O)(=O)N1CC(CC#N)(n2cc(-c3ncnc4[nH]ccc34)cn2)C1` [Baricitinib], with 0.
Same read-out and setting: the same measure for `O=C(Nc1cnn2ccc(N3CCC[C@@H]3c3cc(F)ccc3F)nc12)N1CC[C@H](O)C1` [Larotrectinib]: 0; for `CCN1CCN(Cc2ccc(Nc3ncc(F)c(-c4cc(F)c5nc(C)n(C(C)C)c5c4)n3)nc2)CC1` [Abemaciclib]: 7.4; for `O=C(Nc1ccncc1)C(=O)c1cn(Cc2ccc(Cl)cc2)c2ccccc12` [Indibulin]: 5.7.
Still for that read-out and setting: then `CN(C)C[C@@H]1CCn2cc(c3ccccc32)C2=C(C(=O)NC2=O)c2cn(c3ccccc23)CCO1` [Ruboxistaurin], with 5.6; and `C[C@H](Nc1ncnc2[nH]cnc12)c1cc2ccc(F)cc2nc1-c1ccccn1` [AMG319], with 0.
In turn, `CC(C)(C)c1cc(NC(=O)Nc2ccc(Oc3ccnc4[nH]c(=O)cnc34)cc2F)n(-c2ccccc2)n1` came in with a drug sensitivity score of 1.8.
Same read-out and setting: the same measure for `CCn1cc(-c2ccnc3[nH]c(-c4cccc(CN(C)C)c4)cc23)c(-c2ccc(NC(=O)N(C)C)cc2)n1`: 2; for `CCCCCCCCc1ccc(CCC(N)(CO)CO)cc1` [Fingolimod]: 6.4; for `C1=N/C2=N/c3ccc(OCCN4CCCC4)c(c3)COC/C=C/COCc3cccc(c3)C(=C1)N2` [Pacritinib]: 9.4.
On the same count and under the same terms, then `Nc1ccccc1NC(=O)c1ccc(CNc2nccc(-c3cccnc3)n2)cc1` [Mocetinostat], with 13.7; and `N#CC1(c2ccc(NC(=O)c3cccnc3NCc3ccncc3)cc2)CCCC1` [Apatinib], with 0.5.

The next test relates to OVCAR4. The description is as above. Conditions: exposure time: 72 h; concentration range: 5 concentrations over 10,000-fold range. In short, it runs like this: as §1
On to `O=C(O)c1ccc2c(c1)nc(Nc1cccc(Cl)c1)c1ccncc12` [Silmitasertib], for which the drug sensitivity score is 3.3.
In turn, `CCOc1ccccc1-n1c(C(C)N2CCN(C(=O)COc3ccc(Cl)cc3)CC2)nc2ccccc2c1=O` (stereo unspecified) [Erastin] gave a drug sensitivity score of 9.1.
Same read-out and setting: then `CCNCCS(=O)(=O)NC[C@@]1(c2ccccc2)SC(NC(=O)C(C)(C)C)=NN1C(=O)C(C)(C)C` [Litronesib], with 4.9.
Take `CNC(=O)c1cccc(-c2ccc3c(N4CCOC[C@@H]4C)nc(N4CCOC[C@@H]4C)nc3n2)c1` [Vistusertib]: the drug sensitivity score stood at 11.5.
The compound `CC(C)(C)c1cc(NC(=O)Nc2ccc(-c3cn4c(n3)sc3cc(OCCN5CCOCC5)ccc34)cc2)no1` [Quizartinib] came in with a drug sensitivity score of 1.5.
The same measure, in the same setting: then `N[C@@H]1CCCN(c2c(/C=C3\SC(=O)NC3=O)cccc2-c2ccccc2)C1` [AZD1208], with 0.
Still for that read-out and setting: the same measure for `CCc1c2c(nc3ccc(O)cc13)-c1cc3c(c(=O)n1C2)COC(=O)[C@]3(O)CC` [SN-38]: 14.4.
The same measure, in the same setting: then `Cn1cc(-c2ccc(F)c(C(F)(F)F)c2)nc1C1CCN(c2ncnc3[nH]ncc23)CC1`, with 0.
For the compound `C=CC(=O)Nc1cc(Nc2nccc(-c3cn(C)c4ccccc34)n2)c(OC)cc1N(C)CCN(C)C` [Osimertinib], the drug sensitivity score is 1.7.
`COC(=O)c1ccc2c(c1)[nH]c1ncnc(NCCCN3CCCCC3)c12` [UM729] returned a drug sensitivity score of 0.
Still for that read-out and setting: then `Cc1nc(NC(=O)N2CCC[C@H]2C(N)=O)sc1-c1ccnc(C(C)(C)C(F)(F)F)c1` [Alpelisib], with 0.9; and `C[C@H]1CNCCCN1S(=O)(=O)c1cccc2cncc(F)c12` [Ripasudil], with 0; and `CC(C)(C)C[C@@H]1N[C@@H](C(=O)N[C@H]2CC[C@H](O)CC2)[C@H](c2cccc(Cl)c2F)[C@]12C(=O)Nc1cc(Cl)ccc12`, with 0.1.
For the compound `CON(C)C(=O)N1N=C(c2cc(F)ccc2F)S[C@@]1(CCCN)c1ccccc1` [Filanesib], the drug sensitivity score came to 6.8.
On the same count and under the same terms, the same measure for `CN(C)CC#Cc1ccc(OCCCc2sc(N3CCc4cccc(C(=O)Nc5nc6ccccc6s5)c4C3)nc2C(=O)O)c(F)c1`: 3.5.
